Experimental data from patent US20250059207A1, “6,6-FUSED HETEROCYCLIC COMPOUNDS AS METTL3 INHIBITORS” (858 Therapeutics, Inc., priority 2021, published 2025).

Test system: MOLM-13 cells
Assay: Viability assay in MOLM-13 cells (CellTiter-Glo 2.0)
Type: cell-based, human
Conditions: MOLM-13 human AML cells, 72 hours, CellTiter-Glo 2.0; read-out: MOLM-13 IC50 (cell viability)
Protocol: Effects of test compounds on the proliferation and viability of human AML cells was evaluated using the MOLM-13 cell line (AddexBio Technologies cat. no. C0003003). […] Test compounds or controls (Bortezomib or DMSO) diluted in 2% DMSO/media were added to each well for final concentrations of 0.2% DMSO and 0.1-1 μM Bortezomib. The cells were incubated for 72 hours at 37° C. and 5% CO2. At the end of the 72 hour incubation, plates were removed from the incubator, cooled to room temperature and equal volume of CellTiter-Glo 2.0 (Promega) added to each well. After mixing and incubating the plate at room temperature for 10 minutes the luminescence was read using a plate reader. […] Concentration-response-curves and IC50 values were generated using Collaborative Drug Discovery software.

First: CCOc1cncc2c(=O)n(Cc3cn4cc(C)ccc4n3)ccc12 [Compound 3, 5-ethoxy-2-((6-methylimidazo[1,2-a]pyridin-2-yl)methyl)-2,7-naphthyridin-1(2H)-one]
Second: CC1CCN(Cc2ccc3nc(Cn4ccc5c(N6CC7(CCOCC7)C6)cncc5c4=O)cn3c2)CC1 [Compound 138, 2-({6-[(4-methylpiperidin-1-yl)methyl]imidazo[1,2-a]pyridin-2-yl}methyl)-5-{7-oxa-2-azaspiro[3.5]nonan-2-yl}-1,2-dihydro-2,7-naphthyridin-1-one]
The IC50 of the first is higher: > 10 µM for the first, 1 to 10 µM for the second. The second is the more potent here.

For `O=c1c2cncc(N3CC4(CCCOC4)C3)c2ccn1Cc1cn2cc(CNCC34CC(F)(C3)C4)ccc2n1` [Compound 153, 2-[(6-{[({3-fluorobicyclo[1.1.1]pentan-1-yl}methyl)amino]methyl}imidazo[1,2-a]pyridin-2-yl)methyl]-5-{6-oxa-2-azaspiro[3.5]nonan-2-yl}-1,2-dihydro-2,7-naphthyridin-1-one], the IC50 was < 1 µM.
